Results reported in patent US20190233884A1 (University of Southern California, priority 2016, published 2019).

Tested on: patients with refractory metastatic colorectal cancer (mCRC)
Experiment: PFS, OS and disease control in the control cohort of refractory mCRC patients receiving regorafenib (n=52, Italy), by baseline characteristics and SNP genotype
Assay type: in vivo, human
Details: control cohort
Experimental: All patients underwent the treatment in salvage-line setting.
Patients in the control group received 160 mg regorafenib (Bayer, Leverkusen, Germany) once daily from day 1 to 21 every 4 weeks. Doses were adjusted based on haematological and non-haematological adverse events at the treating physician's discretion in accordance with the manufacturer's recommendations. The analyses were approved by the University of Southern California (USC) Institutional Review Board of Medical Sciences and conducted at the USC/Norris Comprehensive Cancer Center in accordance with the Declaration of Helsinki and Good Clinical Practice Guidelines.
Genomic DNA was extracted from peripheral whole blood in patients of all cohorts using the QIAmp Kit (Qiagen, Valencia, Calif., USA) according to the manufacturer's protocol (www.qiagen.com). The candidate SNPs were genotyped using PCR-based direct DNA sequence analysis by ABI 3100A Capillary Genetic Analyzer and Sequencing Scanner v1.0 (Applied Biosystems). Amplification of extracted DNA was carried out using both forward and reverse primers for each gene polymorphism as shown in Table 1. […] The investigators analyzing SNPs were blinded to the clinical data of the study patients.
The primary endpoint in this study was progression-free survival (PFS), and the secondary endpoints were overall survival (OS) and disease control rate (DCR). PFS was calculated from the date of starting treatment to the first observation of disease progression or death from any cause. If a patient had no disease progression or death, PFS was censored at the date of last follow up. OS was calculated from the date of starting treatment until the date of death from any cause or the date of the last follow-up, at which point OS was censored. The disease control rate (DCR) was defined as the proportion of patients who achieved a stable disease (SD) or […] according to RECISTv1.1. Chi-square test was used to examine the difference in baseline patient characteristics among the three cohorts. Allelic distribution of all SNPs by ethnicity for deviation from Hardy-Weinberg equilibrium and the allelic frequencies of SNPs were tested using the Chi-square tests with one degree of freedom. The associations between candidate SNPs and disease control, and toxicities were examined using contingency tables and Fisher's exact test. The associations of SNPs with PFS and OS were analysed using Kaplan-Meier curves and the log-rank test. Because the true mode of inheritance of candidate SNPs was not established yet, a codominant or dominant genetic model if appropriate was considered.
All patients underwent the treatment in salvage-line setting. […] In all patients, adverse events were graded according to the Common Terminology Criteria for Adverse Events, version 4.0.
Patients in the control group received 160 mg regorafenib (Bayer, Leverkusen, Germany) once daily from day 1 to 21 every 4 weeks. Doses were adjusted based on haematological and non-haematological adverse events at treating physician's discretion in accordance with the manufacturer's recommendations. The analyses were approved by the University of Southern California (USC) Institutional Review Board of Medical Sciences and conducted at the USC/Norris Comprehensive Cancer Center in accordance with the Declaration of Helsinki and Good Clinical Practice Guidelines.
Genomic DNA was extracted from peripheral whole blood in patients of all cohorts using the QIAmp Kit (Qiagen, Valencia, Calif., USA) according to the manufacturer's protocol (www.qiagen.com). The candidate SNPs were tested using PCR-based direct DNA sequence analysis by ABI 3100A Capillary Genetic Analyzer and Sequencing Scanner v1.0 (Applied Biosystems). […] The investigators analyzing SNPs were blinded to the clinical data.
The primary endpoint in this study was progression-free survival (PFS), and the secondary endpoints were overall survival (OS) and disease control rate (DCR). […]

[1] = Sex Female vs Male (Ref.), univariate
[2] = Tumor site Left vs Right (Ref.), univariate
[3] = XRCC3 rs861539 A/A vs G/G (Ref.), multivariable
[4] = XRCC3 rs861539 A/A vs G/G (Ref.), univariate
[5] = XRCC3 rs861539 Any A vs G/G (Ref.), multivariable
[6] = XRCC3 rs861539 Any A vs G/G (Ref.), univariate
[7] = XRCC3 rs861539 G/A vs G/G (Ref.), multivariable
[8] = XRCC3 rs861539 G/A vs G/G (Ref.), univariate
[9] = MATE1 rs2289669 G/A and A/A combined
[10] = MATE1 rs2289669 G/A and A/A combined vs G/G

SMILES: CNC(=O)c1cc(Oc2ccc(NC(=O)Nc3ccc(Cl)c(C(F)(F)F)c3)c(F)c2)ccn1 [regorafenib]
- Median OS (Sex Female): 5.5 months
- Median PFS (Sex Female): 2.0 months
- HR OS [1]: 1.18
- HR PFS [1]: 1.02
- Median OS (Sex Male): 5.4 months
- Median PFS (Sex Male): 1.8 months
- Median OS (Tumor site Left): 7.2 months
- Median PFS (Tumor site Left): 2.2 months
- HR OS [2]: 0.82
- HR PFS [2]: 0.80
- Median OS (Tumor site Right): 3.9 months
- Median PFS (Tumor site Right): 1.8 months
- Disease Control CR/PR/SD, patients n (%) (XRCC3 rs861539 A/A): 3 (43%)
- Median OS (95% CI) (XRCC3 rs861539 A/A): 5.4 (2.3, 9.1) months
- Median PFS (95% CI) (XRCC3 rs861539 A/A): 2.7 (1.7, 4.3) months
- PD, patients n (%) (XRCC3 rs861539 A/A): 4 (57%)
- HR OS (95% CI) [3]: 0.54 (0.21, 1.40)
- HR PFS (95% CI) [3]: 0.62 (0.23, 1.65)
- HR OS (95% CI) [4]: 0.34 (0.04, 2.95)
- HR PFS (95% CI) [4]: 0.83 (0.34, 2.06)
- Disease Control CR/PR/SD, patients n (%) (XRCC3 rs861539 Any A): 13 (38%)
- Median OS (95% CI) (XRCC3 rs861539 Any A): 5.9 (3.8, 8.0) months
- Median PFS (95% CI) (XRCC3 rs861539 Any A): 2.0 (1.8, 3.1) months
- PD, patients n (%) (XRCC3 rs861539 Any A): 21 (62%)
- HR OS (95% CI) [5]: 0.71 (0.38, 1.31)
- HR PFS (95% CI) [5]: 0.85 (0.44, 1.63)
- HR OS (95% CI) [6]: 0.72 (0.22, 2.39)
- HR PFS (95% CI) [6]: 0.83 (0.45, 1.53)
- Disease Control CR/PR/SD, patients n (%) (XRCC3 rs861539 G/A): 10 (37%)
- Median OS (95% CI) (XRCC3 rs861539 G/A): 6.8 (3.6, 8.7) months
- Median PFS (95% CI) (XRCC3 rs861539 G/A): 1.9 (1.8, 3.1) months
- PD, patients n (%) (XRCC3 rs861539 G/A): 17 (63%)
- HR OS (95% CI) [7]: 0.76 (0.40, 1.44)
- HR PFS (95% CI) [7]: 0.92 (0.47, 1.79)
- HR OS (95% CI) [8]: 0.86 (0.25, 2.96)
- HR PFS (95% CI) [8]: 0.83 (0.44, 1.56)
- Disease Control CR/PR/SD, patients n (%) (XRCC3 rs861539 G/G): 4 (27%)
- Median OS (95% CI) (XRCC3 rs861539 G/G): 4.1 (1.7, 6.0) months
- Median PFS (95% CI) (XRCC3 rs861539 G/G): 1.7 (1.0, 2.2) months
- PD, patients n (%) (XRCC3 rs861539 G/G): 11 (73%)
- Disease Control Rate PD (MATE1 rs2289669 A/A): 5 (50%)
- Disease Control Rate SD (MATE1 rs2289669 A/A): 3 (50%)
- Disease Control Rate SD (MATE1 rs2289669 G/A): 7 (27%)
- PD, patients n (%) (MATE1 rs2289669 G/A): 19 (73%)
- Overall Survival Median, months (95% CI) [9]: 5.3 (3.7, 8.0) months
- Progression-free Survival Median, months (95% CI) [9]: 1.8 (1.7, 2.8) months
- Overall Survival HR (95% CI) multivariate [10]: 0.99 (0.52, 1.91)
- Overall Survival HR (95% CI) univariate [10]: 0.85 (0.50, 1.57)
- Progression-free Survival HR (95% CI) multivariate [10]: 0.86 (0.43, 1.70)
- Progression-free Survival HR (95% CI) univariate [10]: 0.65 (0.48, 1.52)
- Disease Control Rate PD (MATE1 rs2289669 G/G): 10 (59%)
- Disease Control Rate SD (MATE1 rs2289669 G/G): 7 (41%)
- Overall Survival Median, months (95% CI) (MATE1 rs2289669 G/G): 5.7 (2.2, 7.8) months
- Progression-free Survival Median, months (95% CI) (MATE1 rs2289669 G/G): 2.1 (1.5, 3.1) months
- Overall Survival HR (95% CI) univariate (OCT2 rs316000): 0.95 (0.50, 1.83)
- Progression-free Survival HR (95% CI) univariate (OCT2 rs316000): 0.95 (0.50, 1.83)
- Disease Control Rate PD (OCT2 rs316019 A/A): 1 (100%)
- Disease Control Rate SD (OCT2 rs316019 A/A): 0
- Disease Control Rate PD (OCT2 rs316019 C/A): 6 (86%)
